Test results: US20200331925A1, “HETEROCYCLIC COMPOUNDS FOR THE TREATMENT OF ABNORMAL CELLULAR PROLIFERATION” (G1 Therapeutics, Inc., priority 2018, published 2020)

Experiments:
Assay type in all cases: biochemical
CDK2/Cyclin E = CDK2/Cyclin E (Homo sapiens, UniProt P24941); experiment: CDK2/Cyclin E kinase assay (Nanosyn, Caliper microfluidic); details: 12-point dose-response, ATP at Km (100 μM), 3 hr
How it was run: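 Caliper microfluidic mobility-shift readout of phosphorylation of 1 μM substrate peptide by 0.15 nM enzyme at 100 μM ATP (stated as Km), 3 hr incubation. 12-point dose-response in singlicate, staurosporine as reference.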

CDK5/p25 = CDK5/p25 (Homo sapiens, UniProt Q00535); experiment: CDK5/p25 kinase assay (Nanosyn, Caliper microfluidic); details: 12-point dose-response, ATP at Km (20 μM), 3 hr
Chain of CDK5/p25 (Q00535 whole entry): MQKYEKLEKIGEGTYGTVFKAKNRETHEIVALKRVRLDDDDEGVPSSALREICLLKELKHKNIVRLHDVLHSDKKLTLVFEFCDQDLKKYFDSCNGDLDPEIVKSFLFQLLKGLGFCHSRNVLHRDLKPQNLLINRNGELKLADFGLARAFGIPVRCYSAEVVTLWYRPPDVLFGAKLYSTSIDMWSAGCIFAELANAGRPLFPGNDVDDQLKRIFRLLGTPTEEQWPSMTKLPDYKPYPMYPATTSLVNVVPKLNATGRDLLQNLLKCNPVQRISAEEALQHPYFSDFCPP
Chain of CDK5/p25 (Q15078 99-307 partner limits assumed): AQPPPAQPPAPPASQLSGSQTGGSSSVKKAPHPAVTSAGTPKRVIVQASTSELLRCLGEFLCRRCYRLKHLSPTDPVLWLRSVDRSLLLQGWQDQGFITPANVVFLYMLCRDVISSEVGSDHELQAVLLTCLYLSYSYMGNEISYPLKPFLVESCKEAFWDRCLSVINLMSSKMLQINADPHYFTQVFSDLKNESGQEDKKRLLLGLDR
How it was run: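 Caliper microfluidic mobility-shift assay, 12-point dose-response in singlicate. CDK5/p25 at 0.1 nM with 20 μM ATP (Km) and 1 μM peptide substrate. Incubation 3 hr.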

CDK6/Cyclin D3 = CDK6/Cyclin D3 (Homo sapiens, UniProt Q00534); experiment: CDK6/Cyclin D3 kinase assay (Nanosyn, Caliper microfluidic); details: 12-point dose-response, ATP at Km (300 μM), 3 hr
Chain of CDK6/Cyclin D3 (Q00534 whole entry): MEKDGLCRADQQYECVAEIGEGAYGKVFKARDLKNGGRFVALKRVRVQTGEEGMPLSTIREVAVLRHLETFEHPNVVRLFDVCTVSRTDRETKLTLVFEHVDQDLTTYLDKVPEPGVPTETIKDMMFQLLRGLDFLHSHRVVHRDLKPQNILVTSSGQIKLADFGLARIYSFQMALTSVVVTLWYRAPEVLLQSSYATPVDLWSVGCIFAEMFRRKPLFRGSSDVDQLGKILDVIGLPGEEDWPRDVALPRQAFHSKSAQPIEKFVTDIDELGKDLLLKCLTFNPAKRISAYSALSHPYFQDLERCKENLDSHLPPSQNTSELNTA
Chain of CDK6/Cyclin D3 (P30281 whole entry partner): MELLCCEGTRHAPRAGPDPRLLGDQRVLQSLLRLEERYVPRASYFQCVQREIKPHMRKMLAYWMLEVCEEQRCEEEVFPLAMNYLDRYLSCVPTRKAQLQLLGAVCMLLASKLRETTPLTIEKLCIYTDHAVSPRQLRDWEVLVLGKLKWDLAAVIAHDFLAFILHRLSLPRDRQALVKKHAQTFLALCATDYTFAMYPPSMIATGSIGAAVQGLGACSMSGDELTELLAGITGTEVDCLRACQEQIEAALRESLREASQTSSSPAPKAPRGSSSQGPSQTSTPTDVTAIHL
How it was run: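 Caliper microfluidic assay with 2 nM enzyme, 300 μM ATP and 1 μM phosphoacceptor peptide, incubated for 3 hr. Compounds were run as 12-point dose-response curves in singlicate.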

CDK4/Cyclin D1 = CDK4/Cyclin D1 (Homo sapiens, UniProt P11802); experiment: CDK4/Cyclin D1 kinase assay (Nanosyn, Caliper microfluidic); details: 12-point dose-response, ATP at Km (200 μM), 3 hr; Table 4
Chain of CDK4/Cyclin D1 (P11802 whole entry): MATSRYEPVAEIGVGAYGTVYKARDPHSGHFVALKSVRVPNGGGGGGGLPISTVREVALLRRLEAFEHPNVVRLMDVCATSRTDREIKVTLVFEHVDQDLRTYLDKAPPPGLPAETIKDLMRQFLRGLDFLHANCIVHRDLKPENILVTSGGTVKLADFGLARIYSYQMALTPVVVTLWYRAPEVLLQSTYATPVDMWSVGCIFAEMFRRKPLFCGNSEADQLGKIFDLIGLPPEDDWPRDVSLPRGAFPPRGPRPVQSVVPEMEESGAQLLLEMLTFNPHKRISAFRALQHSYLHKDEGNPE
Chain of CDK4/Cyclin D1 (P24385 whole entry partner): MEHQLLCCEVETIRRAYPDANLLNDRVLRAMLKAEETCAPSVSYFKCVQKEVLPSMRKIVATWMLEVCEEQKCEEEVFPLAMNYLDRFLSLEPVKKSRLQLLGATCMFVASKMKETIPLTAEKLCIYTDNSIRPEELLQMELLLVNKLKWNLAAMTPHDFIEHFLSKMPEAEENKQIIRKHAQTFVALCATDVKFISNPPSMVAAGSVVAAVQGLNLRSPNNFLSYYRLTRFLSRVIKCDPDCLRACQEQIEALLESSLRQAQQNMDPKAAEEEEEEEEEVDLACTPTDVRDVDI
How it was run: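 Caliper microfluidic mobility-shift read-out, 12-point dose-response in singlicate. 1 nM enzyme, 200 μM ATP (Km), 1 μM peptide substrate, 3 hr incubation; staurosporine as reference.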

CDK5/p35 = CDK5/p35 (Homo sapiens, UniProt Q00535); experiment: CDK5/p35 kinase assay (Nanosyn, Caliper microfluidic); details: 12-point dose-response, ATP at Km (20 μM), 3 hr
Chain of CDK5/p35 (Q00535 whole entry): as the sequence (Q00535 whole entry) above
Chain of CDK5/p35 (Q15078 whole entry partner): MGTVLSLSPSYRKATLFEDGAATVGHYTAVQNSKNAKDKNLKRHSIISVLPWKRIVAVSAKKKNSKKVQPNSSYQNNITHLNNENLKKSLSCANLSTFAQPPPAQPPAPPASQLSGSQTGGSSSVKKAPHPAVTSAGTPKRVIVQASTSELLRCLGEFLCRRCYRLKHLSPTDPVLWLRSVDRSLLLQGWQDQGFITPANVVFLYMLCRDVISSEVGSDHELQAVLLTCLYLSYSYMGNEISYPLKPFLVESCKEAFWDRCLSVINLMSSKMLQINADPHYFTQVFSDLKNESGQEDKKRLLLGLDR
How it was run: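 Microfluidic mobility-shift kinase assay with 0.05 nM CDK5/p35, 20 μM ATP (Km) and 1 μM peptide substrate, 3 hr incubation. Compounds tested as 12-point dose–response in singlicate; staurosporine as reference.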

CDK7/Cyclin H = CDK7/Cyclin H (Homo sapiens, UniProt P50613); experiment: CDK7/Cyclin H kinase assay (Nanosyn, Caliper microfluidic); details: 12-point dose-response, ATP at Km (50 μM), 17 hr
Chain of CDK7/Cyclin H (P50613 whole entry): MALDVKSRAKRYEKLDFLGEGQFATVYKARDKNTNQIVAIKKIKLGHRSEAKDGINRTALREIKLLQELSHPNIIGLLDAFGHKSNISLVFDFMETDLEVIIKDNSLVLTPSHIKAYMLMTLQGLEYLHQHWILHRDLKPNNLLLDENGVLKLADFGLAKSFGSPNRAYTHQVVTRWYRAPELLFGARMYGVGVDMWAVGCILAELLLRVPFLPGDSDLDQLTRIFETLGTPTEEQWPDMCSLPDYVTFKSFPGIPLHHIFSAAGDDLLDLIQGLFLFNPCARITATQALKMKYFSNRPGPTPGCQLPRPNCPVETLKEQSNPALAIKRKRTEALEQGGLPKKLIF
Chain of CDK7/Cyclin H (P51946 whole entry partner): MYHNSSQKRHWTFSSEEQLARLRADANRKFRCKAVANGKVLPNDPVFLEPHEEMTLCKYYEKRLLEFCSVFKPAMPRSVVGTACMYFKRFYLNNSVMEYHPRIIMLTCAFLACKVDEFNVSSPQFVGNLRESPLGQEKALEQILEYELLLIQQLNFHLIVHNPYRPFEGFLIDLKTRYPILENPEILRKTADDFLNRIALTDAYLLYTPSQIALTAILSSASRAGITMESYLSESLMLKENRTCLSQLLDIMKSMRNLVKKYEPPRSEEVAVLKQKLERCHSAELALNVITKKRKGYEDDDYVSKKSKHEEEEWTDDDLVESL
Chain of CDK7/Cyclin H (P51948 whole entry partner): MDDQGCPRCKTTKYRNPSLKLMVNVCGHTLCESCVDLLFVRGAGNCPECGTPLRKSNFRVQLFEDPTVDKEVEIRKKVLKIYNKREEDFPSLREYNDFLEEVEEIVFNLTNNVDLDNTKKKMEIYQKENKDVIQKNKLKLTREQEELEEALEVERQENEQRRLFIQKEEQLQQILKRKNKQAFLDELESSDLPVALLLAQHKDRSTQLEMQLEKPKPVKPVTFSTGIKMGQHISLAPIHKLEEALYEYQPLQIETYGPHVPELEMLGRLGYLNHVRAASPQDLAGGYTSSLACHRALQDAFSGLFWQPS
How it was run: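 Caliper microfluidic mobility-shift assay with 10 nM CDK7/Cyclin H, 50 μM ATP (Km) and 1 μM peptide substrate, incubated 17 hr. Compounds run in 12-point dose-response, singlicate.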

CDK1/Cyclin B1 = CDK1/Cyclin B1 (Homo sapiens, UniProt P06493); experiment: CDK1/Cyclin B1 kinase assay (Nanosyn, Caliper microfluidic); details: 12-point dose-response, ATP at Km (40 μM), 3 hr
Chain of CDK1/Cyclin B1 (P06493 whole entry): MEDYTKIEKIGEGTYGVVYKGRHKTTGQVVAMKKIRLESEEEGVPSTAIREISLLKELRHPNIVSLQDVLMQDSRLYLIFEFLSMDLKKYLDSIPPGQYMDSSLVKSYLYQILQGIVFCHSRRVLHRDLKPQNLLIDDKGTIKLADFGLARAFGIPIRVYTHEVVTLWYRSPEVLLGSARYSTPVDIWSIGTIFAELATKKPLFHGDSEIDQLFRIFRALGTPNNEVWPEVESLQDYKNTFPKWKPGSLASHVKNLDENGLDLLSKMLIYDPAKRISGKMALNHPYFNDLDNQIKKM
Chain of CDK1/Cyclin B1 (P14635 whole entry partner): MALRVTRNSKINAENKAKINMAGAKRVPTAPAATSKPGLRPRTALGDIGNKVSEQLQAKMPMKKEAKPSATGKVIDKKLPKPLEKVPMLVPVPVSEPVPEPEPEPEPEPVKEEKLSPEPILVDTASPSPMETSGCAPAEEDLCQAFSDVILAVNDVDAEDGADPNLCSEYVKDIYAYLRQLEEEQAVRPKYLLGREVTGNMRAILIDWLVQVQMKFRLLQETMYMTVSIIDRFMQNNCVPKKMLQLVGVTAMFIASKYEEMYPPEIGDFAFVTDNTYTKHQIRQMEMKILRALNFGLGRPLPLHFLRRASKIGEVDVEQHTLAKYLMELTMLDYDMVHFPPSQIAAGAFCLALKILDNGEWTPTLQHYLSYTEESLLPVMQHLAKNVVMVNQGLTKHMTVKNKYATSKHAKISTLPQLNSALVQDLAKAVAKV
How it was run: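 Mobility-shift microfluidic kinase assay, 12-point dose-response in singlicate. Conditions: 0.08 nM enzyme, 40 μM ATP (Km), 1 μM peptide substrate, 3 hr incubation; staurosporine as reference.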

CDK2/Cyclin A = CDK2/Cyclin A (Homo sapiens, UniProt P24941); experiment: CDK2/Cyclin A kinase assay (Nanosyn, Caliper microfluidic); details: 12-point dose-response, ATP at Km (50 μM), 3 hr
How it was run: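 Caliper microfluidic mobility-shift read-out; 0.1 nM enzyme, 50 μM ATP (Km), 1 μM peptide substrate, 3 hr incubation. 12-point dose-response in singlicate; staurosporine as reference.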

CDK9/Cyclin T = CDK9/Cyclin T (Homo sapiens, UniProt P50750); experiment: CDK9/Cyclin T kinase assay (Nanosyn, Caliper microfluidic); details: 12-point dose-response, ATP at Km (10 μM), 17 hr; Table 5
How it was run: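 Caliper microfluidic mobility-shift read-out, 12-point dose-response in singlicate at ATP Km with 1 μM peptide substrate; staurosporine reference.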

CDK3/Cyclin E = CDK3/Cyclin E (Homo sapiens, UniProt Q00526); experiment: CDK3/Cyclin E kinase assay (Nanosyn, Caliper microfluidic); details: 12-point dose-response, ATP at Km (400 μM), 3 hr
How it was run: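 Caliper microfluidic mobility-shift read-out with 1 nM enzyme, 400 μM ATP (stated as Km) and 1 μM peptide substrate, 3 hr incubation. Compounds run as 12-point dose-response in singlicate.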

IC50 (CDK2/Cyclin E) | IC50 (CDK5/p25) | IC50 (CDK6/Cyclin D3) | IC50 (CDK4/Cyclin D1) | IC50 (CDK5/p35) | IC50 (CDK7/Cyclin H) | IC50 (CDK1/Cyclin B1) | IC50 (CDK2/Cyclin A) | IC50 (CDK9/Cyclin T) | IC50 (CDK3/Cyclin E) | Structure (SMILES)
260 nM | 660 nM | 2000 nM | 670 nM | 740 nM | 3600 nM | 1700 nM | 420 nM | 600 nM | 640 nM | C[C@H]1CC[C@H](Nc2ncc3cc4n(c3n2)C2(CCCCC2)CN=C4)CC1 [Compound 54, N-((1r,4r)-4-methylcyclohexyl)-8′H-spiro[cyclohexane-1,9′-pyrazino[1′,2′:1,5]pyrrolo[2,3-d]pyrimidin]-2′-amine]
330 nM | 2000 nM | 680 nM | 92 nM | 1700 nM | 120 nM | 1400 nM | 810 nM | 22 nM | 460 nM | N[C@H]1CC[C@@H](Nc2ncc3cc4n(c3n2)C2(CCCCC2)CN=C4)CC1 [Compound 55, (1s,4s)-N^1-(8′H-spiro[cyclohexane-1,9′-pyrazino[1′,2′:1,5]pyrrolo[2,3-d]pyrimidin]-2′-yl)cyclohexane-1,4-diamine]
